# Test results taken from patent publication US20220098159A1, “CARBAMATE DERIVATIVES AND USES THEREOF” (Nodthera Limited, priority 2019, published 2022).
# System: IL-1β release upon NLRP3 activation in peripheral blood mononuclear cells (PBMC)
# Assay: PBMC IC50 determination assay (inhibition of IL-1β release upon NLRP3 activation)
# Type: cell-based
# Conditions: Homo sapiens, PBMC, read-out: Average PBMC IC50 (μM)
# Procedure: The compounds of the present disclosure were tested for their inhibitory activity against IL-1β release upon NLRP3 activation in peripheral blood mononuclear cells (PBMC).
# Protocol A. PBMC were isolated from buffy coats by density gradient centrifugation on Histopaque-1077 (Sigma, cat no. 10771). Isolated cells were seeded into the wells of a 96-well plate and incubated for 3 h with lipopolysaccharide (LPS). Following medium exchange, the compounds of the present disclosure were added (a single compound per well) and the cells were incubated for 30 min. Next, the cells were stimulated either with ATP (5 mM) or nigericin (10 μM) for 1 h and the cell culture media from the wells were collected for further analysis.
# The release of IL-1β into the media was determined by a quantitative detection of IL-1β in the media using an IL-1β enzyme-linked immunosorbent assay (ELISA) Ready-SET-Go!, eBioscience cat. No. 88-7261-88. Briefly, in a first step, high affinity binding plates (Corning, Costar 9018 or NUNC Maxisorp Cat No. 44-2404) were coated overnight at 4° C. with specific capture antibody included in the kit (anti-human IL-1β ref. 14-7018-68). Subsequently, plates were blocked with blocking buffer for 1 h at room temperature (rt) and after washing with a buffer (PBS with 0.05% Tween-20) incubated with protein standard and culture media. After 2 h of incubation at rt, plates were washed and incubated with biotinylated detection antibody included in the kit (anti-human IL-1β Biotin ref. 33-7110-68) for 1 h at rt. Plates were washed and incubated with HRP-streptavidin for 30 min at rt and washed again. The signal was developed after addition of 3,3′,5,5′-tetramethylbenzidine-peroxidase (TMB) until colour appeared and the reaction was stopped by 2 M H2SO4. A microplate spectrophotometer (BioTek) was used to detect signals with 450 nm. The detection range of IL-1β ELISA was 2-150 ng/ml.
# Protocol B. PBMC were isolated from buffy coats by density gradient centrifugation on Histopaque-1077 (Sigma, cat no. 10771). Isolated cells were seeded into the wells (280,000 cells/well) of a 96-well plate and incubated for 3 h with lipopolysaccharide (LPS, 1 μg/ml diluted 1000× from a 1 mg/ml stock solution). The compounds of the present disclosure were added (a single compound per well) and the cells were incubated for 30 min. Next, the cells were stimulated with ATP (5 mM final concentration diluted 20× from a 100 mM stock solution) for 1 h and the cell culture media from the wells were collected for further analysis.
# The release of IL-1β into the media was determined by quantitative detection of IL-1β in the media using HTRF®, CisBio cat. No. 62HIL1BPEH. Briefly, cell culture supernatant were dispensed directly into the assay plate containing antibodies labelled with the HTRF® donor and acceptor. A microplate spectrophotometer (BMG) was used to detect signals at 655 nm and 620 nm. The detection range of IL-1β HTRF® was 39-6500 pg/ml.
row,Compound,IC50
1,"CC(C)OC(=O)C(Cc1ncccn1)OC(=O)N[C@@H](C)c1ccc(Cl)c(Cl)c1 (stereo partly drawn) [Compound 2, Propan-2-yl 2-({[(1S)-1-(3,4-dichlorophenyl)ethyl]carbamoyl}oxy)-3-(pyrimidin-2-yl)propanoate]",10 to 50 µM
2,"CC(C)OC(=O)[C@@H](Cn1cncn1)OC(=O)N[C@@H](C)c1ccc(C2CC2)cc1 [Compound 10, Propan-2-yl (2R)-2-({[(1S)-1-(4-cyclopropylphenyl)ethyl]carbamoyl}oxy)-3-(1H-1,2,4-triazol-1-yl)propanoate]",< 1 µM
3,"CCc1ccc([C@H](C)NC(=O)O[C@H](Cn2cncn2)C(=O)OC(C)C)cc1 [Compound 12, Propan-2-yl (2R)-2-({[(1S)-1-(4-ethylphenyl)ethyl]carbamoyl}oxy)-3-(1H-1,2,4-triazol-1-yl)propanoate]",< 1 µM
4,"CC(C)OC(=O)[C@@H](Cn1cncn1)OC(=O)N[C@@H](C)c1ccc(C(C)C)cc1 [Compound 13, Propan-2-yl (2R)-2-({[(1S)-1-[4-(propan-2-yl)phenyl]ethyl]carbamoyl}oxy)-3-(1H-1,2,4-triazol-1-yl)propanoate]",< 1 µM
5,"CC(C)OC(=O)[C@@H](Cn1cncn1)OC(=O)N[C@@H](C)c1ccc(C(F)(F)F)nc1 [Compound 14, Propan-2-yl (2R)-3-(1H-1,2,4-triazol-1-yl)-2-({[(1S)-1-[6-(trifluoromethyl)pyridin-3-yl]ethyl]carbamoyl}oxy)propanoate]",10 to 50 µM
6,"CC(C)OC(=O)[C@@H](Cn1cncn1)OC(=O)N[C@H](C)c1ccc(C(F)(F)F)nc1 [Compound 15, Propan-2-yl (2R)-3-(1H-1,2,4-triazol-1-yl)-2-({[(1R)-1-[6-(trifluoromethyl)pyridin-3-yl]ethyl]carbamoyl}oxy)propanoate]",10 to 50 µM
7,"CCCC(NC(=O)OC(Cc1ncccn1)C(=O)OC(C)C)c1ccc(C(F)(F)F)cc1 (centres unmarked) [Compound 21, Propan-2-yl 3-(pyrimidin-2-yl)-2-[({1-[4-(trifluoromethyl)phenyl]butyl}carbamoyl)oxy]propanoate]",1 to 3 µM

# Same assay, conditions: Homo sapiens; PBMC from buffy coats, LPS 3 h, compound 30 min, then ATP (5 mM) or nigericin (10 μM) 1 h; IL-1β in media by ELISA (Protocol A) or HTRF (Protocol B); read-out: Average PBMC IC50
row,Compound,IC50
1,"CCOC(=O)C(Cn1cccn1)OC(=O)N[C@@H](C)c1ccc(Cl)cc1 (stereo partly drawn) [Compound 1, Ethyl 2-({[(1S)-1-(4-chlorophenyl)ethyl]carbamoyl}oxy)-3-(1H-pyrazol-1-yl)propanoate]",10 to 50 µM
2,"CC(C)OC(=O)C(Cc1ncccn1)OC(=O)N[C@@H](C)c1ccc(Cl)cc1 (stereo partly drawn) [Compound 3, Propan-2-yl 2-({[(1S)-1-(4-chlorophenyl)ethyl]carbamoyl}oxy)-3-(pyrimidin-2-yl)propanoate]",< 1 µM
3,"CC(C)OC(=O)C(Cc1ncccn1)OC(=O)N[C@@H](C)c1ccc(C#N)cc1 (stereo partly drawn) [Compound 4, Propan-2-yl 2-({[(1S)-1-(4-cyanophenyl)ethyl]carbamoyl}oxy)-3-(pyrimidin-2-yl)propanoate]",1 to 3 µM
4,"CC(C)OC(=O)C(Cc1ncccn1)OC(=O)N[C@@H](C)c1ccc(C(F)(F)F)cc1 (stereo partly drawn) [Compound 5, Propan-2-yl 3-(pyrimidin-2-yl)-2-({[(1S)-1-[4-(trifluoromethyl)phenyl]ethyl]carbamoyl}oxy)propanoate]",< 1 µM
5,"CC(C)OC(=O)[C@@H](Cn1cncn1)OC(=O)N[C@@H](C)c1ccc(C(C)(C)C)cc1 [Compound 6, Propan-2-yl (2R)-2-({[(1S)-1-(4-tert-butylphenyl)ethyl]carbamoyl}oxy)-3-(1H-1,2,4-triazol-1-yl)propanoate]",< 1 µM
6,"CC(C)OC(=O)[C@@H](Cn1cncn1)OC(=O)N[C@@H](C)c1ccc(OCC(F)(F)F)cc1 [Compound 7, Propan-2-yl (2R)-3-(1H-1,2,4-triazol-1-yl)-2-({[(1S)-1-[4-(2,2,2-trifluoroethoxy)phenyl]ethyl]carbamoyl}oxy)propanoate]",< 1 µM
7,"CC(C)OC(=O)[C@@H](Cn1cncn1)OC(=O)N[C@@H](C)c1ccc(COc2ccccc2)cc1 [Compound 8, Propan-2-yl (2R)-2-({[(1S)-1-[4-(phenoxymethyl)phenyl]ethyl]carbamoyl}oxy)-3-(1H-1,2,4-triazol-1-yl)propanoate]",1 to 3 µM
8,"CC(C)OC(=O)[C@@H](Cn1cncn1)OC(=O)N[C@@H](C)c1ccc(C(F)(F)F)c(F)c1 [Compound 9, Propan-2-yl (2R)-2-({[(1S)-1-[3-fluoro-4-(trifluoromethyl)phenyl]ethyl]carbamoyl}oxy)-3-(1H-1,2,4-triazol-1-yl)propanoate]",< 1 µM
9,"CC(C)OC(=O)[C@@H](Cn1cncn1)OC(=O)N[C@@H](C)c1ccc(C(F)(F)F)cc1 [Compound 11, Propan-2-yl (2R)-3-(1H-1,2,4-triazol-1-yl)-2-({[(1S)-1-[4-(trifluoromethyl)phenyl]ethyl]carbamoyl}oxy)propanoate]",< 1 µM
10,"CC(C)OC(=O)C(Cc1ncccn1)OC(=O)NC(C)c1ccc(C(F)(F)F)cc1Cl (centres unmarked) [Compound 16, Isopropyl 2-[1-[2-chloro-4-(trifluoromethyl)phenyl]ethylcarbamoyloxy]-3-pyrimidin-2-yl-propaneate]",< 1 µM
11,"CC(C)OC(=O)[C@@H](Cn1cncn1)OC(=O)NC(C)c1ncc(C(F)(F)F)cn1 (stereo partly drawn) [Compound 18, Propan-2-yl (2R)-3-(1H-1,2,4-triazol-1-yl)-2-[({1-[5-(trifluoromethyl)pyrimidin-2-yl]ethyl}carbamoyl)oxy]propanoate]",3 to 10 µM
12,"COc1cc(C(F)(F)F)ccc1C(C)NC(=O)OC(Cc1ncccn1)C(=O)OC(C)C (centres unmarked) [Compound 19, Propan-2-yl 2-[({1-[2-methoxy-4-(trifluoromethyl)phenyl]ethyl}carbamoyl)oxy]-3-(pyrimidin-2-yl)propanoate]",< 1 µM
13,"Cc1cc(C(F)(F)F)ccc1C(C)NC(=O)OC(Cc1ncccn1)C(=O)OC(C)C (centres unmarked) [Compound 20, Isopropyl 2-[1-[2-methyl-4-(trifluoromethyl)phenyl]ethylcarbamoyloxy]-3-pyrimidin-2-yl-propanoate]",< 1 µM
14,"CCc1cc(C(F)(F)F)ccc1C(C)NC(=O)OC(Cc1ncccn1)C(=O)OC(C)C (centres unmarked) [Compound 22, Propan-2-yl 2-[({1-[2-ethyl-4-(trifluoromethyl)phenyl]ethyl}carbamoyl)oxy]-3-(pyrimidin-2-yl)propanoate]",< 1 µM
15,"CC(C)OC(=O)[C@@H](Cc1ncccn1)OC(=O)N[C@@H](C)c1ccc(C(F)(F)F)cc1 [Compound 23, Propan-2-yl (2R)-3-(pyrimidin-2-yl)-2-({[(1S)-1-[4-(trifluoromethyl)phenyl]ethyl]carbamoyl}oxy)propanoate]",< 1 µM
16,"C[C@H](NC(=O)O[C@H](Cc1ncccn1)C(=O)O)c1ccc(C(F)(F)F)cc1 [Compound 24, (2R)-3-(Pyrimidin-2-yl)-2-({[(1S)-1-[4-(trifluoromethyl)phenyl]ethyl]carbamoyl}oxy)propanoic acid]",3 to 10 µM
17,"CC(C)OC(=O)[C@@H](Cc1ncccn1)OC(=O)N[C@@H](C)c1ccc(C(F)(F)F)cc1Cl [Compound 25, Propan-2-yl (2R)-2-({[(1S)-1-[2-chloro-4-(trifluoromethyl)phenyl]ethyl]carbamoyl}oxy)-3-(pyrimidin-2-yl)propanoate]",< 1 µM
18,"C[C@H](NC(=O)O[C@H](Cc1ncccn1)C(=O)O)c1ccc(C(F)(F)F)cc1Cl [Compound 26, (2R)-2-({[(1S)-1-[2-Chloro-4-(trifluoromethyl)phenyl]ethyl]carbamoyl}oxy)-3-(pyrimidin-2-yl)propanoic acid]",3 to 10 µM
19,"CC(C)OC(=O)[C@@H](Cc1ncccn1)OC(=O)N(C)[C@@H](C)c1ccc(C(F)(F)F)cc1Cl [Compound 27, Propan-2-yl (2R)-2-({[(1S)-1-[2-chloro-4-(trifluoromethyl)phenyl]ethyl](methyl)carbamoyl}oxy)-3-(pyrimidin-2-yl)propanoate]",1 to 3 µM
